Molecular target: DNA-PK/Ku70/Ku85 (Homo sapiens) (UniProt P78527+P12956+P13010)
Experiment: Inhibition of DNA-PK (unknown origin) at 0.1 uM relative to control
Type: protein-complex assay

Work on `COCCNc1nc2ccc(C#CC3(O)CCCCC3)cc2n1-c1ccnc(N)n1` yielded an inhibition of -6.3%.

Reference: ChEMBL document CHEMBL5678812, “Inhibitors of p21-activated kinases (PAKs)” (J Med Chem, 2015)
